This passage reports IC50 results from patent publication US10047073B2, “Histone deacetylase inhibitors and compositions and methods of use thereof” (CHDI Foundation, Inc., priority 2015, dated 2018).

SMILES strings stand for the structures.

In assay [1] the test system is cellular Class I HDAC activity in Jurkat E6-1 cells. Put plainly: Inhibition of cellular Class I HDAC activity, Cell (Lys-Ac) substrate. In kind it is cell-based. The note with it: Homo sapiens, Jurkat E6.1, Jurkat E6.1 cells, Boc-Lys(Ac)-AMC. As for the experimental part: Example 18: Analysis of Inhibition of Cellular Class I HDAC Activity with Class IIa Histone Deacetylase (HDAC) Inhibitors: Cell (Lys-Ac) Substrate
The Class I HDAC activity of Class IIa Histone Deacetylase (HDAC) inhibitors was quantified by measuring the cellular histone deacetylase enzymatic activity using the fluorogenic substrate, Boc-Lys(Ac)-AMC. This was performed according to the procedure in Example 17, using Boc-Lys(Ac)-AMC substrate in place of Boc-Lys(TFA)-AMC.

Assay [2] concerns cellular Class IIa HDAC activity in Jurkat E6-1 cells. In words: Inhibition of cellular Class IIa HDAC activity, Cell (Lys-TFA) substrate. Conditions: Homo sapiens, Jurkat E6.1, Jurkat E6.1 cells, Boc-Lys(TFA)-AMC. In kind it is cell-based. The text has this:
Example 17: Analysis of Inhibition of Cellular Class IIa HDAC Activity with Class IIa Histone Deacetylase (HDAC) Inhibitors: Cell (Lys-TFA) Substrate
The potency of Class IIa Histone Deacetylase (HDAC) inhibitors was quantified by measuring the cellular histone deacetylase enzymatic activity using the fluorogenic substrate, Boc-Lys(TFA)-AMC. After penetration in Jurkat E6-1 cells, the substrate was deacetylated to Boc-Lys-AMC. After cell lysis and cleavage by trypsin, the fluorophore AMC was released from the deacetylated substrate only. The fluorescence of the sample was directly related to the histone deacetylase activity in the sample.
Jurkat E6.1 cells were cultured according to standard cell culture protocols in Jurkat E6.1 Growth Media (RPMI without phenol red, 10% FBS, 10 mM HEPES, and 1 mM Sodium Pyruvate). Jurkat E6.1 cells were counted using a Coulter Counter and resuspended in Jurkat E6.1 growth media at a concentration of 75,000 cells/35 μL. 35 μL or 75,000 cells was seeded into Greiner microtitre assay plates. The plates were then incubated at 37° C. and 5% CO2 while other assay components were being prepared.
(§1) Serial dilutions of the HDAC inhibitors and control reference compound (1-(5-(3-((4-(1,3,4-oxadiazol-2-yl)phenoxy)methyl)-1,2,4-oxadiazol-5-yl)thiophen-2-yl)-2,2,2-trifluoroethanone) were made by first resuspending the lyophilized compound to a final concentration of 10 mM in 100% DMSO. Stocks of 70 aliquots of the 10 mM compound in DMSO were prepared and stored at −20° C. From one stock aliquot of each tested compound and the reference compound, a 16-point serial dilution was prepared according to Table 1 using a 125 μL 16-channel Matrix multi-channel pipette.
2 μL (200×) of each diluted solution and each control (full activity: 100% DMSO alone or full inhibition 1 mM) was stamped into V-bottom polypropylene 384-well compound plates using either the Bravo, Janus, or 12.5 μL 16-channel Matrix multi-channel pipette. Each well with the 200× compound solution was diluted 1:20 by the addition of 38 μL Jurkat assay buffer+DMSO (9.5% DMSO, RPMI without phenol red, 0.09% FBS, 9 mM Hepes, and 0.9 mM Sodium Pyruvate equilibrated to r.t.)
5× (500 μM) substrate was prepared just prior to the addition to the assay. The 5× substrate was prepared by diluting a 100 mM Boc-Lys(TFA)-AMC in DMSO solution 1:200 by adding it drop-wise to Jurkat assay medium (RPMI without phenol red, 0.1% FBS, 10 mM Hepes, and 1 mM Sodium Pyruvate equilibrated to 37° C.) while vortexing at slow speed to prevent precipitation.
10 mL of 3× lysis buffer was prepared with 8.8 mL of 3× stock lysis buffer (50 mM Tris-HCl, pH 8.0, 137 mM NaCl, 2.7 mM KCl, 1 mM MgCl2, 1% Nonidet P40 Substitute equilibrated to r.t.) and 1.2 mL of 3 mg/mL Trypsin equilibrated to r.t.
5 μL of each solution of 1:20 diluted compound from above was transferred to the Greiner microtitre assay plates with 75,000 cells/well using the Bravo. Cells were then incubated for 2 hours at 37° C. and 5% CO2. The assay was then started by adding 10 μL of 5× (500 μM) substrate to the assay plate using either the Bravo or 16-channel Matrix multi-channel pipette. The cells were then incubated for 3 hours at 37° C. and 5% CO2. Next, 25 μL of 3× lysis buffer was added to each well using either the 125 μL 16 channel pipette or the Bravo. The assay plate was then incubated overnight (15-16 hours) at 37° C. and 5% CO2. The following day, the plates were shaken on an orbital shaker for 1 minute at 900 rpm. Finally the top read fluorescence (Excitation: 355 nm, Emission: 460 nm) was measured using PerkinElmer EnVision.

The target in assay [3] is human catalytic domain HDAC4 protein (Homo sapiens (Human), UniProt P56524). In words: Inhibition of HDAC4 catalytic domain, Boc-Lys(TFA)-AMC fluorogenic substrate. Conditions: read-out: HDAC4 Biochemical IC50.
Excerpt: Example 13: Analysis of Inhibition of HDAC4 with Class IIa Histone Deacetylase (HDAC) Inhibitors
The potency of Class IIa Histone Deacetylase (HDAC) inhibitors was quantified by measuring the Histone Deacetylase 4 (HDAC4) catalytic domain enzymatic activity using the fluorogenic substrate, Boc-Lys(TFA)-AMC. The substrate was deacetylated to Boc-Lys-AMC by HDAC4. […] The fluorescence of the sample was directly related to the histone deacetylase activity in the sample.
as §1, with “dimethyl sulfoxide (DMSO).” for “DMSO.”, “60 μL” for “70”, “pipette (Matrix Technologies Ltd).” for “pipette.”
2 μL (200×) of each diluted solution and each control (full activity: 100% DMSO alone or full inhibition 1 mM) was stamped into V-bottomed polypropylene 384-well compound plates using either the Bravo (384-well head from Agilent) or 12.5 μL 16-channel Matrix multi-channel pipette (Matrix Technologies Ltd). Each well with the 200× compound solution was diluted 1:20 by the addition of 38 μL assay buffer+DMSO (10.5% DMSO, 45 mM Tris-HCl, 123 mM NaCl, 2.4 mM KCl, and 0.9 mM MgCl2 at pH 8.0 and equilibrated to r.t.).
The HDAC4 catalytic domain enzyme was human catalytic domain HDAC4 protein (amino acids 648-1032) with a C-terminal 6× histidine tag, produced by BioFocus. A working solution of enzyme was prepared from a 500 μg/mL stock aliquot of HDAC4 catalytic domain (thawed on ice) diluted to 0.2 μg/mL with assay buffer (50 mM Tris-HCl, 137 mM NaCl, 2.7 mM KCl, and 1 mM MgCl2 at pH 8 and equilibrated to r.t.) just prior to the addition of the enzyme to the assay.
5× (50 μM) substrate was prepared just prior to the addition to the assay. A 1 mM substrate stock was made by diluting a 100 mM Boc-Lys(TFA)-AMC in DMSO solution 1:100 by adding it drop-wise to assay buffer (equilibrated to r.t.) while vortexing at slow speed to prevent precipitation. The 5× substrate was prepared by diluting the 1 mM substrate solution 1:20 by adding it drop-wise to assay buffer (equilibrated to r.t.) while vortexing at slow speed to prevent precipitation.
3× (30 μM) Developer/Stop Solution was prepared just prior to addition to the plate by diluting a stock solution of 10 mM reference compound 1:333 in 25 mg/mL trypsin (PAA Laboratories Ltd.) equilibrated to r.t.
5 μL of each solution of 1:20 diluted compound from above was transferred to a clear bottomed, black, 384-well assay plate using the Bravo or the Janus (384-well MDT head from Perkin Elmer). Using a 16-channel Matrix multi-channel pipette, 35 μL of the working solution of HDAC4 catalytic domain enzyme (0.2 μg/mL in assay buffer) was transferred to the assay plate. The assay was then started by adding 10 μL of 5× (50 μM) substrate to the assay plates using either the Bravo, Janus or 16-channel Matrix multi-channel pipette. The assay plate was then shaken for two minutes on an orbital shaker at 900 rpm (rotations per minute). Next the plate was incubated for 15 minutes at 37° C. The reaction was stopped by adding 25 μL of 3× (30 μM) developer/stop solution to the assay plates using either the Bravo, Janus or a 16-channel Matrix multi-channel pipette. Assay plates were then shaken for 5 minutes on an orbital shaker at 1200 rpm. Next, the assay plates were incubated at 37° C. for 1 hour in a tissue culture incubator. Finally, the fluorescence was measured (Excitation: 355 nm, Emission: 460 nm) using PerkinElmer EnVision in top read mode.

human catalytic domain HDAC4 protein, sequence (P56524 648-1032): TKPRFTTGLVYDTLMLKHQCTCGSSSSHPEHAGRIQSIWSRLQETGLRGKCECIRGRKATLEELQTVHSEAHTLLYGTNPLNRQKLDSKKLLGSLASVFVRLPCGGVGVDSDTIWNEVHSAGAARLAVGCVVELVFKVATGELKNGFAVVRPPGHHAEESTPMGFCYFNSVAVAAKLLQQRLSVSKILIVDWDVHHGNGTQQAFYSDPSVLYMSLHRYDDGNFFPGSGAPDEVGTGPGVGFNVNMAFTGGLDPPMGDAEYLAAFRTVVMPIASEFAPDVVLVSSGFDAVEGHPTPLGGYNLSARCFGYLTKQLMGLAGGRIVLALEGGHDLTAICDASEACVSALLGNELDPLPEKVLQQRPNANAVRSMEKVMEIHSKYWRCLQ

As to `O=C(NC1(CN2CCC3(CC2)CC3)CC1)c1ccc(-c2noc(C(F)(F)F)n2)cc1` [Example 5, N-(1-(6-Azaspiro[2.5]octan-6-ylmethyl)cyclopropyl)-4-(5-(trifluoromethyl)-1,2,4-oxadiazol-3-yl)benzamide], the IC50 worked out at 2000 nM in assay [1], 370 nM in assay [2] and 89 nM in assay [3].
